Laboratory results: patent publication US8580512B2, “Yeast-based methods of identifying nucleic acids and compounds for treating neurodegenerative diseases” (University of Alabama, priority 2008, dated 2013)

Experiments:
S. pombe cells [1] = assay: Reversal of rotenone-induced proliferation inhibition; assay type: cell-based, Schizosaccharomyces pombe
Description: Phosphatidylethanolamine (PE) deficiency results in a rotenone-sensitive phenotype that can be suppressed by ethanolamine. Log phase cultures were suspended at 10^7 cells/ml, serially diluted (1:10), and spotted (5 μl per spot) onto YES (Control) or YES containing 16 μM rotenone (+Rotenone).
Oxidative stress has been detected in the brains of deceased Parkinson's disease patients, and in rats exposed to rotenone as a model for Parkinson's disease.

S. pombe cells [2] = assay: MitoTracker Green FM staining of mitochondrial localization; assay type: cell-based, Schizosaccharomyces pombe
Description: (§1) MitoTracker Green FM and dihydroethidium (DHE) staining of S. pombe cells. Mitochondrial localization was detected by staining S. pombe cells with MitoTracker Green FM (MTGreen) based on the protocol recommended by the manufacturer (Invitrogen). Briefly, S. pombe cells were cultured overnight in YES liquid medium at 30° C. to mid-log phase. Where indicated, rotenone stock solution was added to portions of each culture to a final concentration of 6.4 μg/ml. Equivalent volumes of DMSO were added to control cultures. Stock solutions of MTGreen (5 μM in DMSO) were prepared just prior to use. Staining was carried out by adding 10 μl of MTGreen stock solution to 1 ml of cell culture and incubating at 30° C. with shaking for 20 min. Stained cells were washed once with YES and resuspended in approximately 10 μl of YES prior to preparation of samples for microscopy. Stained cells were concentrated by centrifugation to a volume of approximately 10 μl. DHE staining was carried out as described by Huard et al., (2008) Cell Res. 18: 961-973, incorporated herein by reference in its entirety. Stained cells were visualized by epifluorescence microscopy using a Nikon 90i automated epifluorescence microscope system operated using Nikon NIS-Elements software. Images were captured using a CoolSNAP HQ2 monochrome CCD camera (Photometrics). RAW images were level-adjusted using the Adobe PhotoShop CS3 software application.
Rotenone induces disruption of mitochondrial localization in S. pombe cells. Similar to some mammalian cells, such as fibroblasts and nerve cells (Barsoum et al., (2006) EMBO J. 25: 3900-3911; Amchenkova et al., (1988) J. Cell. Biol. 107: 481-495), mitochondria in S. pombe are organized into tubular structures (Chiron et al., (2007) Methods Mol. Biol. 372: 91-105), as shown in FIG. 5A. […] Wild type S. pombe cells were cultured to mid-log phase in YES liquid medium were treated with rotenone (6.4 μg/ml) for 4 hr, stained with the fluorescent mitochondrial dye MitoTracker Green FM (MTGreen), and visualized by fluorescence microscopy. […]

S. pombe cells [3] = assay: DIC microscopy of cell morphology; assay type: cell-based, Schizosaccharomyces pombe; details: wild type, rotenone 6.4 μg/ml, 4 to 24 hrs
Excerpt: To determine whether rotenone induces abnormalities in S. pombe cell morphology, rotenone-treated and untreated S. pombe cells were compared by DIC microscopy.

S. pombe cells [4] = details: 0.3 μg/ml rotenone, Heslot et al. 1970; cited from earlier work
S. pombe cells [5] = assay: Dihydroethidium (DHE) staining for ROS; assay type: cell-based, Schizosaccharomyces pombe; details: rotenone 6.4 μg/ml; for ROS levels (DHE): wild type
Description: as §1
Rotenone induces generation of ROS in S. pombe cells. Since rotenone induces generation of ROS in mammalian cell cultures and oxidative stress damage in the brains of rats chronically treated with the toxin (Li et al., (2003) J. Biol. Chem. 278: 8516-8525; Greenamyre et al., (2003) Parkinsonism Relat. Disord. 9 (Suppl 2): S59-64), it was determined whether rotenone also induces generation of ROS in S. pombe cells. To do this, wild type S. pombe cells were treated with rotenone and periodically analyzed the treated cells by staining with dihydroethidium (DHE), which is oxidized to ethidium in the presence of ROS (Bindokas et al., (1996) J. Neurosci. 16: 1324-1336).
Pmk1, but not Spc1, is required for normal clearance of rotenone-induced ROS in S. pombe cells. To investigate further the effects of rotenone on spc1Δ and pmk1Δ cells, we treated the two strains and wild type S. pombe cells were treated with rotenone for 12 hrs and stained cells from treated and control cultures with DHE for detection of ROS by fluorescence microscopy.

S. pombe cells [6] = assay: Rotenone sensitivity assay (serial dilution spot growth on agar media); assay type: cell-based, Schizosaccharomyces pombe; details: for sensitivity of growth to rotenone: 16 μM rotenone; for sensitivity of growth to rotenone relative to wild type: rotenone 6.4 μg/ml; for inhibition of S. pombe growth: wild type
Description: Yeast strains, media, and genetic methods. The following S. pombe strains were used in this study: SP870 (h90 ade6-210 leu1-32 ura4-D18), SPSPC1 U90 (h90 ade6-210 leu1-32 ura4-D18 spc1::ura4), SPM1L (h90 leu1-32 ura4-D18 spm1::LEU2). S. pombe cultures were grown in either YES medium (0.5% yeast extract; 3% dextrose; and adenine, histidine, leucine, lysine and uracil, each at 250 mg/L) or Edinburgh minimal medium (EMM) containing required auxotrophic supplements (Alfa et al., (1993) Experiments with fission yeast: A laboratory course manual, Cold Spring Harbor Laboratory Press, Cold Spring Harbor, N.Y., incorporated herein by reference in its entirety). Agar media contained 2% Bacto agar (Difco).
Rotenone sensitivity assay. Rotenone stock solutions (10 mM in DMSO) were prepared just prior to carrying out each experiment and protected from light. Rotenone containing YES and EMM agar media were prepared by mixing rotenone stock solution with growth medium as required for the desired rotenone concentration (up to 6.4 μg/ml). For agar media, rotenone stock solution was added after autoclaving and cooling of the media to approximately 45° C. DMSO was added to control media at concentrations equivalent to that in media supplemented with rotenone. Plates were incubated at room temperature for 3-12 hr prior to use. S. pombe strains were cultured overnight in YES liquid medium at 30° C. to mid-log phase, concentrated to 5×10^6 cells/ml, and serially diluted (1:5). Three μl of each dilution was spotted onto rotenone containing plates and control plates and the plates were incubated at 30° C. for 2-4 days, as indicated in relevant figure legends.
Effects of rotenone on S. pombe cell growth in nutrient-enriched and nutrient-limited conditions. To investigate the effects of rotenone on S. pombe cell growth, we prepared complex rich (YES) and synthetic defined minimal (EMM) agar media containing concentrations of rotenone ranging from 0.2 to 6.4 μg/ml. […] Since rotenone has a relatively short half-life in aqueous solutions, growth media containing the toxin were prepared freshly prior to each experiment. Mid-log phase cultures of wild type S. pombe cells were serially diluted and tested for growth on YES and EMM plates containing rotenone and on control media lacking the toxin.
To determine whether spc1Δ and/or pmk1Δ mutants are hypersensitive to rotenone, log phase cultures of the two strains and wild type S. pombe cells were serially diluted and tested for growth on YES medium containing rotenone and on control medium lacking the toxin. […] The reduced sensitivity of spc1Δ cells to rotenone was most evident after incubation of the cultures for two days (FIG. 8A), with the difference after 3 days of growth being apparent from examination of colony sizes at the end of the cell dilution series on the respective plates (FIG. 8B).

SMILES: NCCO [ethanolamine]
- suppression of rotenone-sensitive phenotype (S. pombe cells [1]; psd1-3Δ (phosphatidylethanolamine deficient) strain, YES with 16 μM rotenone, 1 mM ethanolamine): suppressed

SMILES: O=C1O[C@H]([C@@H](O)CO)C(O)=C1O [ascorbic acid]
- reversal of rotenone-induced proliferation inhibition (S. pombe cells [1]; pka1Δ S. pombe cells): reversed
- reversal of rotenone-induced proliferation inhibition (S. pombe cells [1]; wild-type S. pombe cells, nutrient stressed conditions): reversed

SMILES: C=C(C)[C@H]1Cc2c(ccc3c2O[C@@H]2COc4cc(OC)c(OC)cc4[C@@H]2C3=O)O1 [rotenone]
- cells with fragmentation of mitochondrial localization (S. pombe cells [2]; pmk1Δ cells, rotenone 6.4 μg/ml, 4 hr): approximately 70 % of cells
- effect on mitochondrial localization (S. pombe cells [2]; spc1Δ cells, rotenone 6.4 μg/ml, 4 hr): marginal effect
- persistence of fragmented pattern of mitochondrial localization after initial exposure (S. pombe cells [2]; wild type, continued culturing in rotenone containing medium, data not shown): at least 24 hrs
- defects in S. pombe cell morphology (S. pombe cells [3]): does not induce obvious defects
- effect on S. pombe cell growth (S. pombe cells [4]): negligible effect
- rotenone-induced ROS levels (DHE) relative to wild type (S. pombe cells [5]; pmk1Δ cells, 12 hrs): dramatically higher
- rotenone-induced ROS levels (DHE) (S. pombe cells [5]; spc1Δ cells, 12 hrs): only a very slight increase
- ROS levels (DHE) (S. pombe cells [5]; 6 hrs): higher levels of ROS than control cells
- ROS levels (DHE) (S. pombe cells [5]; 12 hr): Higher levels of ROS
- sensitivity of growth to rotenone (S. pombe cells [6]; aks1Δ mutant, complex YES medium): strongly hypersensitive
- sensitivity of growth to rotenone (S. pombe cells [6]; cgs1Δ mutant, complex YES medium): does not significantly increase the sensitivity
- sensitivity of growth to rotenone (S. pombe cells [6]; cgs1Δaks1Δ double mutant, complex YES medium): allowing the yeast to proliferate in the presence of rotenone
- sensitivity of growth to rotenone (S. pombe cells [6]; pka1Δ mutant, complex YES medium): strongly hypersensitive
- sensitivity of growth to rotenone relative to wild type (S. pombe cells [6]; pmk1Δ mutant, YES medium, 3 days): profoundly more sensitive
- sensitivity of growth to rotenone (S. pombe cells [6]; psd1Δ psd2Δ psd3Δ triple deletion, complex medium): increased sensitivity
- sensitivity of growth to rotenone relative to wild type (S. pombe cells [6]; spc1Δ mutant, YES medium, 2-3 days): slightly less sensitive
- sensitivity of growth to rotenone (S. pombe cells [6]; spc1Δ mutant, complex YES medium): not hypersensitive
- inhibition of S. pombe growth (S. pombe cells [6]; EMM minimal medium, 1.6 μg/ml rotenone, 4 days at 30° C.): slightly inhibited
- inhibition of S. pombe growth (S. pombe cells [6]; EMM minimal medium, 6.4 μg/ml rotenone, 4 days at 30° C.): strongly inhibited
- inhibition of S. pombe growth (S. pombe cells [6]; YES medium, 6.4 μg/ml rotenone, 3 days at 30° C.): modest inhibition
- inhibition of S. pombe growth (S. pombe cells [6]; YES medium, rotenone concentrations lower than 6.4 μg/ml (from 0.2 μg/ml)): not on YES containing lower concentrations
